Results reported in patent publication US20110130397A1, “PYRROLINONE COMPOUNDS AS INHIBITORS OF BACTERIAL PEPTIDYL TRNA HYDROLASE AND USES THEREOF” (priority 2006, published 2011).

Structure (SMILES)	melting point [°C]
Cc1ccc(C(=O)C2=C(O)C(=O)N(c3nc4ccc(Cl)cc4s3)C2c2ccc(F)c(F)c2)o1 (centres unmarked) [Compound 461, 1-(6-Chlorobenzo[d]thiazol-2-yl)-5-(3,4-difluorophenyl)-3-hydroxy-4-(5-methylfuran-2-carbonyl)-1H-pyrrol-2(5H)-one]	235 to 236
Cc1ccc(C(=O)C2=C(O)C(=O)N(c3nc4ccc(Cl)cc4s3)C2c2ccc(C#N)cc2)o1 (centres unmarked) [Compound 620]	259 to 260
Cc1ccc(C(=O)C2=C(O)C(=O)N(c3nc4c(Cl)cccc4s3)C2c2ccc(F)c(F)c2)o1 (centres unmarked) [Compound 463]	269 to 270
CCc1ccc2nc(N3C(=O)C(O)=C(C(=O)c4ccc(C)o4)C3c3ccc(C(C)C)cc3)sc2c1 (centres unmarked) [Compound 135]	220 to 222
O=C(C1=C(O)C(=O)N(c2nc3ccc(Cl)cc3s2)C1c1ccc(F)cc1)C1CCC1 (centres unmarked) [Compound 572]	271 to 273
Cc1ccc(C(=O)C2=C(O)C(=O)N(CCc3c[nH]c4ccccc34)C2c2ccccc2F)o1 (centres unmarked) [Compound 593]	197 to 198
CCOC1=C(C(=O)c2ccc(C)o2)C(c2ccc(O)cc2)N(c2nc3ccccc3n2C)C1=O (centres unmarked) [Compound 431]	254 to 255
Cc1ccc(C(=O)C2=C(O)C(=O)N(c3nc(N4CCOCC4)c4nc[nH]c4n3)C2c2ccccc2F)o1 (centres unmarked) [Compound 285]	297 to 299
CC(=O)C1=C(O)C(=O)N(c2nc3c(Cl)cccc3s2)C1c1ccc(F)cc1 (centres unmarked) [Compound 426]	231 to 232
Cc1ccc(C(=O)C2=C(O)C(=O)N(CCCN(CCCNC(=O)OC(C)(C)C)C(=O)OC(C)(C)C)C2c2ccc(F)cc2)o1 (centres unmarked) [Compound 490]	146 to 148
O=C(C1=C(O)C(=O)N(c2nc3ccc(Cl)cc3s2)C1c1ccc(Cl)cc1)C1CC1 (centres unmarked) [Compound 453]	245 to 246
Cc1ccc(C(=O)C2=C(O)C(=O)N(c3ncccn3)C2c2ccccc2F)o1 (centres unmarked) [Compound 188]	249 to 250
CCOC(=O)CCC(=O)C1=C(O)C(=O)N(c2nc3c(Cl)cccc3s2)C1c1ccccc1F (centres unmarked) [Compound 499]	180 to 182
Cc1ccc(C(=O)C2=C(O)C(=O)N(c3nc4ccc(F)cc4s3)C2c2ccc(OCCCN(C)C)cc2)o1 (centres unmarked) [Compound 480]	209 to 211
COCC(=O)C1=C(O)C(=O)N(c2nc3ccc(F)cc3s2)C1c1ccccc1F (centres unmarked) [Compound 443]	228 to 229
Cc1ccc(C(=O)C2=C(O)C(=O)N(c3nc4ccc(F)cc4s3)C2c2cccc(OCc3ccccc3)c2)o1 (centres unmarked) [Compound 476]	187 to 188
COc1ccc2nc(N3C(=O)C(O)=C(C(=O)c4ccc(C)o4)C3c3ccccc3F)sc2c1 (centres unmarked) [Compound 151]	268 to 269
O=C(COc1ccccc1)C1=C(O)C(=O)N(c2nc3c(Cl)cccc3s2)C1c1ccccc1F (centres unmarked) [Compound 449]	131 to 133
CCOc1ccc2nc(N3C(=O)C(O)=C(C(=O)c4ccc(C)o4)C3C3CCCCC3)sc2c1 (centres unmarked) [Compound 185]	166 to 167
CCN(CC)c1ccc(C2C(C(=O)c3ccc(C)o3)=C(O)C(=O)N2c2nc3c(Cl)cccc3s2)cc1 (centres unmarked) [Compound 616]	223 to 226
Cc1ccc(C(=O)C2=C(O)C(=O)N(c3nc4c(Cl)cccc4s3)C2c2ccc(C)o2)o1 (centres unmarked) [Compound 610]	224 to 225
CCOC(=O)C1=C(O)C(=O)N(c2nc3ccc(Cl)cc3s2)C1c1ccc(F)cc1 (centres unmarked) [Compound 422]	236 to 237
O=C(C1=C(O)C(=O)N(c2nc3c(Cl)cccc3s2)C1c1ccccc1F)C1CCC1 (centres unmarked) [Compound 573]	220 to 221
COc1ccccc1CC(=O)C1=C(O)C(=O)N(c2nc3c(Cl)cccc3s2)C1c1ccccc1F (centres unmarked) [Compound 483]	224 to 226

Structure (SMILES)	melting point [°C]
COCCOc1ccc(CCC(=O)C2=C(O)C(=O)N(c3nc4c(Cl)cccc4s3)C2c2ccc(F)cc2)cc1 (centres unmarked) [Compound 578]	182 to 183
Cc1ccc(C(=O)C2=C(O)C(=O)N(c3nc4c(Cl)cccc4s3)C2c2ccc(OCc3ccccc3)cc2)o1 (centres unmarked) [Compound 472]	240 to 241
Cc1ccc(C(=O)C2=C(O)C(=O)N(c3nc4ccc(Cl)cc4s3)C2c2cccc3ccccc23)o1 (centres unmarked) [Compound 617]	260 to 261
O=C(C1=C(O)C(=O)N(c2nc3c(Cl)cccc3s2)C1c1ccc(F)cc1)C1CC2C=CC1C2 (centres unmarked) [Compound 570]	216 to 218
Cc1ccc(C(=O)C2=C(O)C(=O)N(Cc3nn[nH]n3)C2)o1 [Compound 178]	233 to 234
CC(=O)C1=C(O)C(=O)N(c2nc3ccc(Cl)cc3s2)C1c1ccc(F)cc1 (centres unmarked) [Compound 420]	238 to 239
Cc1ccc(C(=O)C2=C(O)C(=O)N(c3nc4ccccc4s3)C2c2ccccc2F)o1 (centres unmarked) [Compound 163]	253 to 254
Cc1ccc(C(=O)C2=C(O)C(=O)N(c3nc4ccc(Cl)cc4s3)C2c2ccc(OCCO)cc2)o1 (centres unmarked) [Compound 477]	209 to 210
CC(=O)C1=C(O)C(=O)N(c2nc3ccc(Cl)cc3s2)C1c1ccccc1F (centres unmarked) [Compound 429]	255 to 256
O=C(C1=C(O)C(=O)N(c2nc3ccc(Cl)cc3s2)C1c1ccccc1F)C1CC1 (centres unmarked) [Compound 451]	246 to 247
Cc1ccc(C(=O)C2=C(O)C(=O)N(c3nc4ccc(F)cc4s3)C2c2ccc(OCc3ccccc3)cc2)o1 (centres unmarked) [Compound 471]	191 to 193
COc1ccc2nc(N3C(=O)C(O)=C(C(=O)c4ccc(C)o4)C3c3ccccn3)sc2c1 (centres unmarked) [Compound 157]	240 to 241
O=C(COc1ccccc1Cl)C1=C(O)C(=O)N(c2nc3ccc(F)cc3s2)C1c1ccc(F)cc1 (centres unmarked) [Compound 459]	234 to 235
COc1ccc2nc(N3C(=O)C(O)=C(C(=O)c4ccc(C)o4)C3c3ccc(OC)c(O)c3)sc2c1 (centres unmarked) [Compound 156]	241 to 242
Cc1ccc(C(=O)C2=C(O)C(=O)N(c3ccc4ncsc4c3)C2c2ccccc2F)o1 (centres unmarked) [Compound 564]	231 to 232
O=C(COc1ccccc1Cl)C1=C(O)C(=O)N(c2nc3ccc(Cl)cc3s2)C1c1ccc(F)cc1 (centres unmarked) [Compound 458]	196 to 197
CC(=O)N1CCCC1C(=O)C1=C(O)C(=O)N(c2nc3ccc(F)cc3s2)C1c1ccc(Cl)cc1 (centres unmarked) [Compound 648]	293 to 297
CCOc1ccc2nc(N3C(=O)C(O)=C(C(=O)c4ccc(C)o4)C3c3ccc(O)c(C(=O)O)c3)sc2c1 (centres unmarked) [Compound 254]	251 to 252
CCc1ccc2nc(N3C(=O)C(O)=C(C(=O)c4ccc(C)o4)C3c3cccc(Cl)c3)sc2c1 (centres unmarked) [Compound 136]	174 to 177
CCOC(=O)C1=C(O)C(=O)N(c2nc3ccc(F)cc3s2)C1c1ccc(F)cc1 (centres unmarked) [Compound 425]	218 to 219
CCOC(=O)CCC(=O)C1=C(O)C(=O)N(c2nc3c(Cl)cccc3s2)C1c1ccc(F)cc1 (centres unmarked) [Compound 500]	178 to 179
Cc1ccc(C(=O)C2=C(O)C(=O)N(c3nc4c(Cl)cccc4s3)C2c2ccc(-c3ccccc3)cc2)o1 (centres unmarked) [Compound 466]	222 to 223
Cc1ccc(C(=O)C2=C(O)C(=O)N(c3nc4ccc(Cl)cc4s3)C2c2ccc(-c3ccccc3)cc2)o1 (centres unmarked) [Compound 464]	244 to 245
